Results as given in PMC6978637 (Saudi Pharmaceutical Journal : SPJ, 2019).
“And” between values parts separate entries of the source, which are not always exact repeats. Equal values may be shown once. Read-outs that look alike come from different tables or passages of the source.

What was measured:
[1] = test system: NIH-3T3 cells; test: WST-1 cytotoxicity assay; format: cell-based, mouse; settings: Mus musculus, NIH3T3, 48 h, read-out: NIH-3T3 Cells IC50
[2] = target: FGFR3 (Homo sapiens, UniProt P22607); test: biochemical; format: biochemical
[3] = test system: FGFR3; test: biochemical; format: biochemical; settings: for FGFR selectivity (in words): among FGFR1-4
[4] = target: FGFR4 (Homo sapiens, UniProt P22455); test: biochemical; format: biochemical
[5] = test system: FGFR1; test: Z'-LYTE kinase enzyme inhibition assay, FGFR1; format: biochemical; settings: for FGFR1-SI: selectivity index IC50/IC50, lowest IC50 of the compound = 1; for FGFR selectivity (in words): among FGFR1-4
[6] = target: FGFR1 (Homo sapiens, UniProt P11362); test: Z'-LYTE kinase enzyme inhibition assay, FGFR1; format: biochemical
[7] = selectivity index IC50/IC50, lowest IC50 of the compound = 1

Sequence of FGFR3 (Homo sapiens, UniProt P22607) (P22607 23-806): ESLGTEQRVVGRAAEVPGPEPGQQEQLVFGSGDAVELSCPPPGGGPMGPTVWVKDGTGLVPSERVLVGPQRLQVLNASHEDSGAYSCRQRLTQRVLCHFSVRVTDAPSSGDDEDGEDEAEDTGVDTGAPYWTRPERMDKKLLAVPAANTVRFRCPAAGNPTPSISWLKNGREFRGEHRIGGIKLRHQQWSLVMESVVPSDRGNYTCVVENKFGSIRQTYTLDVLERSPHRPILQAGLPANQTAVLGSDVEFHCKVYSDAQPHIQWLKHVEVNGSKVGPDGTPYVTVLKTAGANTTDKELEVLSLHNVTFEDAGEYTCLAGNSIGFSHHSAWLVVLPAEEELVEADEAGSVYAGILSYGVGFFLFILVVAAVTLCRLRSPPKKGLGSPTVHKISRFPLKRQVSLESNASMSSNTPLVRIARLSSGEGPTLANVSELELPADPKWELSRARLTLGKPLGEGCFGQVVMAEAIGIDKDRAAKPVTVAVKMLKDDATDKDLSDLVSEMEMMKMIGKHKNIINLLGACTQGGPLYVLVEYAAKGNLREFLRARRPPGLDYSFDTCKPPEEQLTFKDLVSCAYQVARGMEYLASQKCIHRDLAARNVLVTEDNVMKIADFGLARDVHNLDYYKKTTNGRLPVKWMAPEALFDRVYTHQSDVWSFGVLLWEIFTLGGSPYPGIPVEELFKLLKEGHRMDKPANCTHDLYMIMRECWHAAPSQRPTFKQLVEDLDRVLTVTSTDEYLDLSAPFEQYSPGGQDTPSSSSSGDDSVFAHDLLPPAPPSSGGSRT
Sequence of FGFR4 (P22455 22-802): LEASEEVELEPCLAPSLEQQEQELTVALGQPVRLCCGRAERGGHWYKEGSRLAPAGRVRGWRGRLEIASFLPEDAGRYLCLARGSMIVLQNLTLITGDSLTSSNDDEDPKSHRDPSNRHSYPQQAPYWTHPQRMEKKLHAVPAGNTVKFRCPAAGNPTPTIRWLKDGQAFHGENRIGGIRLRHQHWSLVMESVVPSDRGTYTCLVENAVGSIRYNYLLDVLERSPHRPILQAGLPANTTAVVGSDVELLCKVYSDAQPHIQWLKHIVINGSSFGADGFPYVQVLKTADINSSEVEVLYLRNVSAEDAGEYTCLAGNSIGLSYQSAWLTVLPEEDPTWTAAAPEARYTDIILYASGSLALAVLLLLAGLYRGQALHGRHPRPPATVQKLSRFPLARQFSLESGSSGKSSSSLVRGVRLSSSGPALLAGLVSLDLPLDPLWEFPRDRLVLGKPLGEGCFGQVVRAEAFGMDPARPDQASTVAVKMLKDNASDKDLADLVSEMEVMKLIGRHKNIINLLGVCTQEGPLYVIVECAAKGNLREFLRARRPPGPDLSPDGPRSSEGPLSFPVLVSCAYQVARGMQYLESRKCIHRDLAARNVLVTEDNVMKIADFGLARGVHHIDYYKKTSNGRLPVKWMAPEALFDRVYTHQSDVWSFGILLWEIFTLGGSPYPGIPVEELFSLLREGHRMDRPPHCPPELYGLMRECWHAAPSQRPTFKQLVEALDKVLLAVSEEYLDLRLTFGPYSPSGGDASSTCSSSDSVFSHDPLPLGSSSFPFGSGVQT
Sequence of FGFR1 (Homo sapiens, UniProt P11362) (P11362 22-822): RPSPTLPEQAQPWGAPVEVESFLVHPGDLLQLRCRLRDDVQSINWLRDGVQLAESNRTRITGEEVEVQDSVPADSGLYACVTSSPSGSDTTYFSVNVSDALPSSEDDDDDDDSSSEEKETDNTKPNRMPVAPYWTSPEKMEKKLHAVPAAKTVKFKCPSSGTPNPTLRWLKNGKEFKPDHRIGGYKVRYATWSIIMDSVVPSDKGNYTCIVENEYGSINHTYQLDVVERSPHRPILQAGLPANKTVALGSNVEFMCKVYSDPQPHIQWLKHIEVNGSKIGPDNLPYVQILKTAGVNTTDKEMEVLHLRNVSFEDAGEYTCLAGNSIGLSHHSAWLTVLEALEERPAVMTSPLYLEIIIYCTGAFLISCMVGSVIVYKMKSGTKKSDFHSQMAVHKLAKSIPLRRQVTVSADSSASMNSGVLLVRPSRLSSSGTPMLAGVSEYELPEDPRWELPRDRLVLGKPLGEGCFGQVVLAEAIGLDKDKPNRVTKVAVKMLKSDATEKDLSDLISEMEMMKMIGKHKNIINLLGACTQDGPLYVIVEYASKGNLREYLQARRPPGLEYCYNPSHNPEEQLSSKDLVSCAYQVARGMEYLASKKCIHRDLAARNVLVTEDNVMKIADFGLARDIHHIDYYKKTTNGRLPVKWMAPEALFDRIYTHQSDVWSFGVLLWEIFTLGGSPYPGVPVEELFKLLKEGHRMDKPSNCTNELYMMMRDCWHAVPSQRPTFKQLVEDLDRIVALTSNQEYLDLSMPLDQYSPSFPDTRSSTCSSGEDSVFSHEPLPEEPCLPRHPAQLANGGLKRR

SMILES: O=CN1CCN(c2ccc(/C=C3/C(=O)Nc4ccc(-c5ccc(C(=O)N6CCCC6)cc5)cc43)cc2)CC1 [Compound A30, (E)-4-{4-{ {2-oxo-5-[4-(pyrrolidine-1-carbonyl)phenyl]indolin-3-ylidene}methyl}phenyl}piperazine-1-carbaldehyde]
- IC50 [1]: 1.59 ± 0.224 µM
- IC50 ([2]; FGFR3-IC50): 0.193 ± 0.0393 µM
- FGFR3-SI [3]: 2.880
- FGFR4-SI [4]: 94.136
- IC50 [4]: 6.32 ± 0.322 µM
- FGFR1-SI [5]: 1
- IC50 ([6]; FGFR1-IC50): 0.0672 ± 0.00292 µM

SMILES: O=CN1CCN(c2ccc(/C=C3/C(=O)Nc4ccc(-c5ccc(-c6ccc(O)cc6)cc5)cc43)cc2)CC1 [Compound A26, (E)-4-{4-{[5-(4'-hydroxy-[1,1'-biphenyl]-4-yl)-2-oxoindolin-3-ylidene]methyl}phenyl}piperazine-1-carbaldehyde]
- IC50 [1]: 2.5 ± 0.268 µM
- IC50 ([2]; read-out: FGFR3-IC50): 0.481 ± 0.0241 µM
- FGFR3-SI [3]: 1.14
- FGFR4-SI [4]: 24.028
- IC50 ([4]; read-out: FGFR4-IC50): 10.1 ± 0.322 µM
- FGFR1-SI [5]: 1
- IC50 ([6]; read-out: FGFR1-IC50): 0.422 ± 0.0403 µM

SMILES: O=C1Nc2ccc(-c3ccc(C(=O)N4CCOCC4)cc3)cc2/C1=C\c1ccc(N2CCC(O)CC2)cc1 [Compound A9, (E)-3-[4-(4-hydroxypiperidin-1-yl)benzylidene]-5-[4-(morpholine-4-carbonyl)phenyl]indolin-2-one]
- IC50 [1]: 1.15 ± 0.22 µM
- IC50 ([2]; FGFR3-IC50): 0.0191 ± 0.00322 µM
- FGFR selectivity (in words) [3]: for FGFR3
- FGFR3-SI [3, 7]: 1
- FGFR4-SI [4]: 927.339
- IC50 [4]: 17.7 ± 0.329 µM
- FGFR1-SI [5]: 3.369
- IC50 ([6]; FGFR1-IC50): 0.0644 ± 0.00123 µM

SMILES: CN1CCN(c2ccc(/C=C3/C(=O)Nc4ccc(-c5ccc(C(=O)N6CCCCC6)cc5)cc43)cc2)CC1 [Compound A16, (E)-3-[4-(4-methylpiperazin-1-yl)benzylidene]-5-[4-(piperidine-1-carbonyl)phenyl]indolin-2-one]
- IC50 [1]: 0.626 ± 0.14 µM
- IC50 ([2]; FGFR3-IC50): 0.0143 µM and 0.0142 µM
- FGFR selectivity (in words) [3]: for FGFR3
- FGFR3-SI [3, 7]: 1
- FGFR4-SI [4]: 1054.660
- IC50 [4]: 15.05 ± 0.0641 µM
- FGFR1-SI [5]: 17.919
- IC50 ([6]; FGFR1-IC50): 0.256 ± 0.0281 µM

SMILES: O=C1Nc2ccc(-c3ccc(C(=O)N4CCCCC4)cc3)cc2/C1=C\c1ccc(N2CCC(O)CC2)cc1 [Compound A10, (E)-3-[4-(4-hydroxypiperidin-1-yl)benzylidene]-5-[4-(piperidine-1-carbonyl)phenyl]indolin-2-one]
- IC50 [1]: 0.983 ± 0.158 µM
- IC50 ([2]; FGFR3-IC50): 0.0172 ± 0.000419 µM
- FGFR selectivity (in words) [3]: for FGFR3
- FGFR3-SI [3, 7]: 1
- FGFR4-SI [4]: 1343.587
- IC50 [4]: 23.2 ± 0.271 µM
- FGFR1-SI [5]: 20.006
- IC50 ([6]; FGFR1-IC50): 0.3447 ± 0.00341 µM

SMILES: O=C1Nc2ccc(-c3ccc(C(=O)N4CCOCC4)cc3)cc2/C1=C\c1ccc(N2CCOCC2)cc1 [Compound A3, (E)-5-[4-(morpholin-4-carbonyl)phenyl]-3-(4-morpholinobenzylidene)indolin-2-one]
- IC50 [1]: 3.26 ± 0.121 µM
- IC50 ([2]; FGFR3-IC50): 0.0525 ± 0.0047 µM
- FGFR selectivity (in words) [3]: for FGFR3
- FGFR3-SI [3, 7]: 1
- FGFR4-SI [4]: 69.878
- IC50 [4]: 3.67 ± 0.29 µM
- FGFR1-SI [5]: 13.054
- IC50 ([6]; FGFR1-IC50): 0.686 ± 0.0277 µM

SMILES: CN1CCN(c2ccc(/C=C3/C(=O)Nc4ccc(-c5ccc(C(=O)N6CCCC6)cc5)cc43)cc2)CC1 [Compound A18, (E)-3-[4-(4-methylpiperazin-1-yl)benzylidene]-5-[4-(pyrrolidine-1-carbonyl)phenyl]indolin-2-one]
- IC50 [1]: 2.54 ± 0.146 µM
- IC50 ([2]; FGFR3-IC50): 0.156 ± 0.0313 µM
- FGFR3-SI [3]: 3.167
- FGFR4-SI [4]: 295.505
- IC50 [4]: 14.5 ± 0.211 µM
- FGFR selectivity (in words) [5]: selectivity to FGFR1
- FGFR1-SI [5]: 1
- IC50 ([6]; FGFR1-IC50): 0.0492 ± 0.00252 µM

SMILES: CN1CCN(c2ccc(/C=C3/C(=O)Nc4ccc(-c5ccc(C(=O)N6CCOCC6)cc5)cc43)cc2)CC1 [Compound A15, (E)-3-[4-(4-methylpiperazin-1-yl)benzylidene]-5-[4-(morpholine-4-carbonyl)phenyl]indolin-2-one]
- IC50 [1]: 9.5 ± 0.261 µM
- IC50 ([2]; FGFR3-IC50): 0.0388 ± 0.00135 µM
- FGFR3-SI [3, 7]: 1.003
- FGFR4-SI [4]: 382.588
- IC50 [4]: 14.8 ± 0.449 µM
- FGFR selectivity (in words) [5]: selectivity to FGFR1 and FGFR3
- FGFR1-SI [5]: 1
- IC50 ([6]; FGFR1-IC50): 0.0387 ± 0.000504 µM

SMILES: CN1CCN(C(=O)c2ccc(-c3ccc4c(c3)/C(=C\c3ccc(N5CCC(O)CC5)cc3)C(=O)N4)cc2)CC1 [Compound A11, (E)-3-[4-(4-hydroxypiperidin-1-yl)benzylidene]-5-[4-(4-methylpiperazine-1-carbonyl)phenyl]indolin-2-one]
- IC50 [1]: 87.8 ± 4.29 µM
- IC50 ([2]; FGFR3-IC50): 0.106 ± 0.0028 µM
- FGFR3-SI [3, 7]: 1
- FGFR4-SI [4]: 191.383
- IC50 [4]: 20.2 ± 0.259 µM
- FGFR selectivity (in words) [5]: selectivity to FGFR1 and FGFR3
- FGFR1-SI [5]: 1.464
- IC50 ([6]; FGFR1-IC50): 0.155 ± 0.00618 µM

SMILES: CN1CCN(C(=O)c2ccc(-c3ccc4c(c3)/C(=C\c3ccc(N5CCN(C=O)CC5)cc3)C(=O)N4)cc2)CC1 [Compound A29, (E)-4-{4-{ {5-[4-(4-methylpiperazine-1-carbonyl)phenyl]-2-oxoindolin-3-ylidene}methyl}phenyl}piperazine-1-carbaldehyde]
- IC50 [1]: 10.1 ± 0.251 µM
- IC50 ([2]; FGFR3-IC50): 0.187 ± 0.00412 µM
- FGFR3-SI [3, 7]: 1
- FGFR4-SI [4]: 32.626
- IC50 [4]: 6.1 ± 0.347 µM
- FGFR1-SI [5]: 48.818
- IC50 ([6]; FGFR1-IC50): 9.13 ± 1.76 µM

SMILES: CN1CCN(C(=O)c2ccc(-c3ccc4c(c3)/C(=C\c3ccc(N5CCN(C)CC5)cc3)C(=O)N4)cc2)CC1 [Compound A17, (E)-3-[4-(4-methylpiperazin-1-yl)benzylidene]-5-[4-(4-methylpiperazine-1-carbonyl)phenyl]indolin-2-one]
- IC50 [1]: 4.7 ± 0.105 µM
- IC50 ([2]; FGFR3-IC50): 0.0133 ± 0.00293 µM
- FGFR selectivity (in words) [3]: for FGFR3
- FGFR3-SI [3, 7]: 1
- FGFR4-SI [4]: 542.643
- IC50 [4]: 7.23 ± 0.288 µM
- FGFR1-SI [5]: 61.547
- IC50 ([6]; FGFR1-IC50): 0.8198 ± 0.00363 µM

SMILES: O=CN1CCN(c2ccc(/C=C3/C(=O)Nc4ccc(-c5ccc6cc(O)ccc6c5)cc43)cc2)CC1 [Compound A25, (E)-4-{4-{[5-(6-hydroxynaphthalen-2-yl)-2-oxoindolin-3-ylidene]methyl}phenyl}piperazine-1-carbaldehyde]
- IC50 [1]: 24.5 ± 0.306 µM
- IC50 ([2]; FGFR3-IC50): 1.09 ± 0.477 µM
- FGFR3-SI [3, 7]: 1
- FGFR4-SI [4]: 5.641
- IC50 [4]: 6.13 ± 0.208 µM
- FGFR1-SI [5]: 3.658
- IC50 ([6]; FGFR1-IC50): 3.976 ± 0.000354 µM

SMILES: O=C1Nc2ccc(-c3ccc(C(=O)N4CCCC4)cc3)cc2/C1=C\c1ccc(N2CCOCC2)cc1 [Compound A6, (E)-3-(4-morpholinobenzylidene)-5-[4-(pyrrolidine-1-carbonyl)phenyl]indolin-2-one]
- IC50 [1]: 0.818 ± 0.241 µM
- IC50 ([2]; FGFR3-IC50): 1.09 ± 0.0473 µM
- FGFR3-SI [3]: 22.297
- FGFR4-SI [4]: 16.785
- IC50 [4]: 0.823 ± 0.108 µM
- FGFR selectivity (in words) [5]: selectivity to FGFR1
- FGFR1-SI [5]: 1
- IC50 ([6]; FGFR1-IC50): 0.049 ± 0.000688 µM

SMILES: O=CN1CCN(c2ccc(/C=C3/C(=O)Nc4ccc(-c5ccc(C(=O)N6CCCCC6)cc5)cc43)cc2)CC1 [Compound A28, (E)-4-{4-{ {2-oxo-5-[4-(piperidine-1-carbonyl)phenyl]indolin-3-ylidene}methyl}phenyl}piperazine-1-carbaldehyde]
- IC50 [1]: 0.839 ± 0.232 µM
- IC50 ([2]; FGFR3-IC50): 0.0336 ± 0.000574 µM
- FGFR3-SI [3, 7]: 1
- FGFR4-SI [4]: 209.223
- IC50 [4]: 7.03 ± 0.243 µM
- FGFR1-SI [5]: 2.299
- IC50 ([6]; FGFR1-IC50): 0.0773 ± 0.00314 µM

SMILES: O=C1Nc2ccc(-c3ccc(C(=O)N4CCCCC4)cc3)cc2/C1=C\c1ccc(N2CCOCC2)cc1 [Compound A4, (E)-3-(4-morpholinobenzylidene)-5-[4-(piperidine-1-carbonyl)phenyl]indolin-2-one]
- IC50 [1]: 0.4 ± 0.1 µM
- IC50 ([2]; FGFR3-IC50): 0.195 ± 0.00561 µM
- FGFR3-SI [3]: 1.819
- FGFR4-SI [4]: 141.176
- IC50 [4]: 15.1 ± 0.313 µM
- FGFR selectivity (in words) [5]: selectivity to FGFR1 and FGFR3
- FGFR1-SI [5]: 1
- IC50 ([6]; FGFR1-IC50): 0.107 ± 0.00384 µM

SMILES: O=C1Nc2ccc(-c3ccc(C(=O)N4CCCC4)cc3)cc2/C1=C\c1ccc(N2CCC(O)CC2)cc1 [Compound A12, (E)-3-[4-(4-hydroxypiperidin-1-yl)benzylidene]-5-[4-(pyrrolidine-1-carbonyl)phenyl]indolin-2-one]
- IC50 [1]: 4.96 ± 0.187 µM
- IC50 ([2]; FGFR3-IC50): 0.0225 ± 0.000737 µM
- FGFR selectivity (in words) [3]: for FGFR3
- FGFR3-SI [3, 7]: 1
- FGFR4-SI [4]: 217.749
- IC50 [4]: 4.89 ± 0.402 µM
- FGFR1-SI [5]: 28.719
- IC50 ([6]; FGFR1-IC50): 0.646 ± 0.0109 µM
